Source: patent publication US8916526B2, “Flavanone derivative” (National University Corporation Okayama University, priority 2009, dated 2014)
In brackets after ≈: the same amount, converted by molar mass.

Legend:
[1] = system: MRSA N315; assay: In vitro infectivity assay (MIC), broth dilution, Exp. Ex. 1-1; format: cell-based, Staphylococcus aureus; conditions: MRSA N315; Mueller-Hinton broth, 35° C., 24 hours
Protocol: (§1) The antibacterial activities were measured based on broth dilution techniques of international standards (Clinical Laboratory Standards Institute: CLSI). The activities were shown by minimum inhibitory concentrations (MICs) determined by inoculating the above-mentioned strains at a concentration of about 10^5 […] into Mueller-Hinton broth (manufactured by Difco) containing 0.85% NaCl in 96-well microplates and incubating the plates at 35° C. for 24 hours. Measurement was carried out three times.
(§2) The antibacterial activities of the compounds of the present invention against various strains such as methicillin-resistant Staphylococcus aureus (MRSA), vancomycin intermediate-resistant Staphylococcus aureus (VISA), methicillin-sensitive Staphylococcus aureus (MSSA), and vancomycin-resistant enterococci (VRE) were examined. Of the bacteria used in MIC measurement in this test example, clinical bacteria of MRSA (OM481 strain and OM584 strain) were supplied from Okayama University Hospital (Japan). An MRSA strain N315, a vancomycin intermediate-resistant Staphylococcus aureus (VISA) strain Mu50, and a methicillin-sensitive Staphylococcus aureus (MSSA) strain FDA 209P were used as controls. Vancomycin-resistant enterococcus (VRE) strains NCTC 12201 and FN-1 were supplied from the National Institute of Infectious Disease (Japan).

[2] = system: MRSA OM481; assay: as above; format: cell-based, Staphylococcus aureus; conditions: MRSA OM481; Mueller-Hinton broth, 35° C., 24 hours
Protocol: as §1, §2

[3] = system: MRSA OM58; assay: as above; format: cell-based, Staphylococcus aureus; conditions: MRSA OM58; Mueller-Hinton broth, 35° C., 24 hours
Protocol: as §1, §2

[4] = system: MSSA FDA 209P; assay: as above; format: cell-based, Staphylococcus aureus; conditions: MSSA FDA 209P; Mueller-Hinton broth, 35° C., 24 hours
Protocol: as §1, §2

[5] = system: VISA Mu50; assay: as above; format: cell-based, Staphylococcus aureus; conditions: VISA Mu50; Mueller-Hinton broth, 35° C., 24 hours
Protocol: as §1, §2

[6] = system: VRE FN-1; assay: as above; format: cell-based, enterococci; conditions: VRE FN-1; Mueller-Hinton broth, 35° C., 24 hours
Protocol: as §1, §2

[7] = system: VRE NCTC12201; assay: as above; format: cell-based, enterococci; conditions: VRE NCTC12201; Mueller-Hinton broth, 35° C., 24 hours
Protocol: as §1, §2

[8] = target: T1, DNA gyrase of Escherichia coli (Escherichia coli, UniProt P0AES4+P0AES6); assay: DNA gyrase inhibition (supercoiling assay kit), Exp. Ex. 1-2; format: biochemical; conditions: E. coli DNA gyrase supercoiling, relaxed pBR322, 37° C., 30 minutes
T1 construct: purchased John Innes Enterprises #K0001
T1 sequence (P0AES4 whole entry, one chain of several): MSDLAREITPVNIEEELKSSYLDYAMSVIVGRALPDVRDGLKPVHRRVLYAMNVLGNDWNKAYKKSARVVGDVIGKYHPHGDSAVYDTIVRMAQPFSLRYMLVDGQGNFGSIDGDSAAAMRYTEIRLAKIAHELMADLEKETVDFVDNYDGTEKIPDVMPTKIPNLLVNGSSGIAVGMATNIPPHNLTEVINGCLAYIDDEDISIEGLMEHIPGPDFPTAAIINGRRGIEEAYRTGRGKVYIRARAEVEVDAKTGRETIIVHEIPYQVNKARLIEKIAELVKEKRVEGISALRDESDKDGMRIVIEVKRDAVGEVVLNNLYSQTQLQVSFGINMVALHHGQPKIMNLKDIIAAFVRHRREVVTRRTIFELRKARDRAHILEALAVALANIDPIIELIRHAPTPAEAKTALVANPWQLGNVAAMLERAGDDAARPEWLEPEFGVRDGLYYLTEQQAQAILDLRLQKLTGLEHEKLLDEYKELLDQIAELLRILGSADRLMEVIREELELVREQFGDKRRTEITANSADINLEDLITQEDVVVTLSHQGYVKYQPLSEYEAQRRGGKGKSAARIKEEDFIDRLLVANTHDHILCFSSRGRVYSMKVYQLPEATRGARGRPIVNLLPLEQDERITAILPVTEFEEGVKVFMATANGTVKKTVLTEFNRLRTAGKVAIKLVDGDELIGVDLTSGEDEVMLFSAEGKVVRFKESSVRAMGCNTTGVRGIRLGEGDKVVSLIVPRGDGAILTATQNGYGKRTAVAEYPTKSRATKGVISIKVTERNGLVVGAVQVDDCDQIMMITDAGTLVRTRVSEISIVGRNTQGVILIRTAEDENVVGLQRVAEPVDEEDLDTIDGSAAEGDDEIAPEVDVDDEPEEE
Protocol: (§3) As a kit for measurement of DNA gyrase of Escherichia coli, a product purchased from John Innes Enterprises (Gyrase Supercoiling assay kit #K0001) was used. Relaxed DNA was modified with gyrase into supercoiled DNA, and reaction products were separated by electrophoresis depending on the sizes of the molecular weights to examine anti-gyrase effects (IC50). One unit (1 U) of DNA gyrase and […] of relaxed pBR322 DNA were added to […] of the reaction solution, and the mixture was allowed to react at 37° C. for 30 minutes in the presence of 35 mM Tris-HCl (pH 7.5), 24 mM KCl, 4 mM MgCl2, 2 mM DTT, 1.8 mM spermidine, 1 mM ATP, 6.5% (w/v) glycerol, and 0.1 mg/ml BSA. The reactions were stopped using […] of a reaction stop solution (40% sucrose, 100 mM Tris-HCl (pH 7.5), 1 mM EDTA, 0.5 mg/ml bromophenol blue).

[9] = system: Vancomycin intermediate-resistant Staphylococcus aureus Mu50; assay: In vitro infectivity assay (MIC), Exp. Ex. 2-1; format: cell-based; conditions: Gram-positive; microdilution, MIC after 24 h
Protocol: as §1
as §2, with “vancomycin-resistant enterococci (VRE),” for “methicillin-resistant Staphylococcus aureus (MRSA),”, “(VISA), methicillin-resistant Staphylococcus aureus (MRSA), and” for “(VISA),”, “(MSSA)” for “(MSSA), and vancomycin-resistant enterococci (VRE)”

[10] = system: Vancomycin-resistant enterococci FN-1; assay: In vitro infectivity assay (MIC), Exp. Ex. 2-1; format: cell-based; conditions: Gram-positive; microdilution, MIC after 24 h
Protocol: as §1
as §2, with “vancomycin-resistant enterococci (VRE),” for “methicillin-resistant Staphylococcus aureus (MRSA),”, “(VISA), methicillin-resistant Staphylococcus aureus (MRSA), and” for “(VISA),”, “(MSSA)” for “(MSSA), and vancomycin-resistant enterococci (VRE)”

[11] = system: Vancomycin-resistant enterococci NCTC 12201; assay: In vitro infectivity assay (MIC), Exp. Ex. 2-1; format: cell-based; conditions: Gram-positive; microdilution, MIC after 24 h
Protocol: as §1
as §2, with “vancomycin-resistant enterococci (VRE),” for “methicillin-resistant Staphylococcus aureus (MRSA),”, “(VISA), methicillin-resistant Staphylococcus aureus (MRSA), and” for “(VISA),”, “(MSSA)” for “(MSSA), and vancomycin-resistant enterococci (VRE)”

[12] = system: Methicillin sensitive S. aureus 209P; assay: In vitro infectivity assay (MIC), Exp. Ex. 2-1; format: cell-based, Staphylococcus aureus; conditions: Gram-positive; microdilution, MIC after 24 h
Protocol: as §1
as §2, with “vancomycin-resistant enterococci (VRE),” for “methicillin-resistant Staphylococcus aureus (MRSA),”, “(VISA), methicillin-resistant Staphylococcus aureus (MRSA), and” for “(VISA),”, “(MSSA)” for “(MSSA), and vancomycin-resistant enterococci (VRE)”

[13] = system: Methicillin-resistant S. aureus COL; assay: In vitro infectivity assay (MIC), Exp. Ex. 2-1; format: cell-based, Staphylococcus aureus; conditions: Gram-positive; microdilution, MIC after 24 h
Protocol: as §1
as §2, with “vancomycin-resistant enterococci (VRE),” for “methicillin-resistant Staphylococcus aureus (MRSA),”, “(VISA), methicillin-resistant Staphylococcus aureus (MRSA), and” for “(VISA),”, “(MSSA)” for “(MSSA), and vancomycin-resistant enterococci (VRE)”

[14] = system: Methicillin-resistant S. aureus N315; assay: In vitro infectivity assay (MIC), Exp. Ex. 2-1; format: cell-based, Staphylococcus aureus; conditions: Gram-positive; microdilution, MIC after 24 h
Protocol: as §1
as §2, with “vancomycin-resistant enterococci (VRE),” for “methicillin-resistant Staphylococcus aureus (MRSA),”, “(VISA), methicillin-resistant Staphylococcus aureus (MRSA), and” for “(VISA),”, “(MSSA)” for “(MSSA), and vancomycin-resistant enterococci (VRE)”

[15] = system: Methicillin-resistant S. aureus OM481; assay: In vitro infectivity assay (MIC), Exp. Ex. 2-1; format: cell-based, Staphylococcus aureus; conditions: Gram-positive; microdilution, MIC after 24 h
Protocol: as §1
as §2, with “vancomycin-resistant enterococci (VRE),” for “methicillin-resistant Staphylococcus aureus (MRSA),”, “(VISA), methicillin-resistant Staphylococcus aureus (MRSA), and” for “(VISA),”, “(MSSA)” for “(MSSA), and vancomycin-resistant enterococci (VRE)”

[16] = system: Methicillin-resistant S. aureus OM584; assay: In vitro infectivity assay (MIC), Exp. Ex. 2-1; format: cell-based, Staphylococcus aureus; conditions: Gram-positive; microdilution, MIC after 24 h
Protocol: as §1
as §2, with “vancomycin-resistant enterococci (VRE),” for “methicillin-resistant Staphylococcus aureus (MRSA),”, “(VISA), methicillin-resistant Staphylococcus aureus (MRSA), and” for “(VISA),”, “(MSSA)” for “(MSSA), and vancomycin-resistant enterococci (VRE)”

[17] = system: Streptococcus pneumoniae R6; assay: In vitro infectivity assay (MIC), Exp. Ex. 2-1; format: cell-based; conditions: Gram-positive; microdilution, MIC after 24 h
[18] = system: Escherichia coli K-12; assay: Antibacterial activity (MIC) against Gram-negative strains, microdilution; format: cell-based; conditions: MIC after 24 h
Protocol: as §1

[19] = system: Pseodomonas aeruginosa PAOI; assay: as above; format: cell-based; conditions: MIC after 24 h
Protocol: as §1

[20] = target: T2, E. coli DNA gyrase (Escherichia coli, UniProt P0AES4+P0AES6); assay: DNA gyrase inhibition (supercoiling kit), Exp. Ex. 2-2; format: biochemical; conditions: supercoiling activity, 37° C., 30 minutes; read-out: IC50 (E. coli DNA gyrase inhibitions)
T2 construct: purchased John Innes Enterprises #K0001
T2 sequence (P0AES4 whole entry, one chain of several): as above
Protocol: as §3, with “1” for “One”

[21] = target: T3, Escherichia coli Topoisomerase IV (Escherichia coli, UniProt P0AFI2+P20083); assay: Topoisomerase IV inhibition (decatenation kit), Exp. Ex. 2-3; format: biochemical; conditions: decatenation of kDNA, 37° C., 30 minutes; read-out: IC50 (E. coli topoisomerase IV inhibitions)
T3 construct: purchased John Innes Enterprises
T3 sequence (P20083 whole entry): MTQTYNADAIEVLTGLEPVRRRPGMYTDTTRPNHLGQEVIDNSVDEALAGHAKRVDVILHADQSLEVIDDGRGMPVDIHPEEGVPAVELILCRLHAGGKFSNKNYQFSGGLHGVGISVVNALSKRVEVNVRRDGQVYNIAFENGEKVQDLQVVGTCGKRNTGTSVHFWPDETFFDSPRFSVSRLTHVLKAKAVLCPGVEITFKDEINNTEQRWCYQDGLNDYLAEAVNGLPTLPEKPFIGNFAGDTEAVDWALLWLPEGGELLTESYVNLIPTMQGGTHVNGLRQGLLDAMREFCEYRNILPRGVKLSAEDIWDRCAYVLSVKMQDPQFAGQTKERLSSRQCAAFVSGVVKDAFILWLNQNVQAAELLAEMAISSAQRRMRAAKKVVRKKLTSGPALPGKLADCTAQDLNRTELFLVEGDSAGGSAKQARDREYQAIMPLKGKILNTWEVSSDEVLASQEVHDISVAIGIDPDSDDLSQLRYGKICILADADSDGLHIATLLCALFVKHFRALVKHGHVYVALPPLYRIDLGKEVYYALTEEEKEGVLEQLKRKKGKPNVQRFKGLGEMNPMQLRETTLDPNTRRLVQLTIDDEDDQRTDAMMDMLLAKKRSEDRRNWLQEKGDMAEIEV
T3 sequence (P0AFI2 whole entry): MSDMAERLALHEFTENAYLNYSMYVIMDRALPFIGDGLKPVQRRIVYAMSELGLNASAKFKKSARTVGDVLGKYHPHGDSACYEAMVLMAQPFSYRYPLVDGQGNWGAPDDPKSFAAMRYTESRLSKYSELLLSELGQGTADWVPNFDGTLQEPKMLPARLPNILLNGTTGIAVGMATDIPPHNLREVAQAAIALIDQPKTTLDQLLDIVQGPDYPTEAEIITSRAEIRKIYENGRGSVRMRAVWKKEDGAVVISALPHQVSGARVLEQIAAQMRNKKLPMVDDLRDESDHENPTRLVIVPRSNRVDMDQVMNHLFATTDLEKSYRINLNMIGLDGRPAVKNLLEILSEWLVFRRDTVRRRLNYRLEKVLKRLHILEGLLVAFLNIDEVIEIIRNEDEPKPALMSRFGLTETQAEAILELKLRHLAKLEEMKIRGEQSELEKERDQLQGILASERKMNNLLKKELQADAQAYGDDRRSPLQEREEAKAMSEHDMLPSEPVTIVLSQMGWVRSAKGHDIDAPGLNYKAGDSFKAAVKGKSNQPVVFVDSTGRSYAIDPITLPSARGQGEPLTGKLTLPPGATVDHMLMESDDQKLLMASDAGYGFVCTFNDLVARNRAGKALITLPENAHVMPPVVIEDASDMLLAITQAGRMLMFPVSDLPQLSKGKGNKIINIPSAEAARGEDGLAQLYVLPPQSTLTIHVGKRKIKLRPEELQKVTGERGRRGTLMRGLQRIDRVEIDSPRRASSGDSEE
Protocol: (§4) Staphylococcus aureus Topoisomerase IV and Escherichia coli Topoisomerase IV were purchased from John Innes Enterprises. 1 unit of topoisomerase IV was cultured with 200 ng of kinetoplast DNA (kDNA) in 30 L of a reaction solution at 37° C. for 30 minutes under the conditions of 50 mM Tris-HCl (pH 7.5) (S. aureus)/50 mM HEPES-KOH (pH 7.6) (E. coli), 5 mM MgCl2 (S. aureus)/5 mM magnesium acetate (E. coli), 350 mM potassium glutamate (S. aureus)/100 mM potassium glutamate (E. coli), 5 mM dithiotheri (S. aureus)/10 mM dithiotheri (E. coli), 1.5 mM ATP (S. aureus)/1 mM ATP (E. coli), and 40% (w/v) glycerol. The reactions were stopped by adding 8 L of a reaction stop solution (40% sucrose, 100 mM Tris.HCl (pH 7.5), 1 mM EDTA, 0.5 mg/ml bromophenol blue). Agarose gel (1.0%) was poured into TAE (40 mM Tris acetate, 2 mM EDTA).

[22] = target: T4, Staphylococcus aureus Topoisomerase IV (Staphylococcus aureus, UniProt P0C1S7+P0C1U9); assay: as above; format: biochemical; conditions: decatenation of kDNA, 37° C., 30 minutes; read-out: IC50 (S. aureus topoisomerase IV inhibitions)
T4 construct: purchased John Innes Enterprises
T4 sequence (P0C1U9 whole entry): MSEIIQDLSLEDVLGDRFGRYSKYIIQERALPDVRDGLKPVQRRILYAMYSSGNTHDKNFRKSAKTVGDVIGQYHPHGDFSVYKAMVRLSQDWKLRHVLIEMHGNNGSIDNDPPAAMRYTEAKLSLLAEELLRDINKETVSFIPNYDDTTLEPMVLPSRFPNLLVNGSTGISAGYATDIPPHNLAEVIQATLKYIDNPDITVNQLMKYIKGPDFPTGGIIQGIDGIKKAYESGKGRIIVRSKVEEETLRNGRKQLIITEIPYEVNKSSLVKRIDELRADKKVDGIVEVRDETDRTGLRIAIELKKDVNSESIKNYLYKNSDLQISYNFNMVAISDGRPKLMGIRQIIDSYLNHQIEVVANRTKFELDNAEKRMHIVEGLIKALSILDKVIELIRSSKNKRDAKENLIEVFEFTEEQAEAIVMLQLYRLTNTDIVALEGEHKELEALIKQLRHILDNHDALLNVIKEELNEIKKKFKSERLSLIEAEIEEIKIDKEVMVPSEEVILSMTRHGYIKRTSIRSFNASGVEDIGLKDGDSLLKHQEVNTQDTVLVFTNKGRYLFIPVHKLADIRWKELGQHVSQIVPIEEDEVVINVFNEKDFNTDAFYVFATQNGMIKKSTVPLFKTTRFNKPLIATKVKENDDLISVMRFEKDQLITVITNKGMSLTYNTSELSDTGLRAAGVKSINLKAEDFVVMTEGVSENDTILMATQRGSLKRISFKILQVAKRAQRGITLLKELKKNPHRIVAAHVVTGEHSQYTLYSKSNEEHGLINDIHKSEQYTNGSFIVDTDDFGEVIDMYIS
T4 sequence (P0C1S7 whole entry): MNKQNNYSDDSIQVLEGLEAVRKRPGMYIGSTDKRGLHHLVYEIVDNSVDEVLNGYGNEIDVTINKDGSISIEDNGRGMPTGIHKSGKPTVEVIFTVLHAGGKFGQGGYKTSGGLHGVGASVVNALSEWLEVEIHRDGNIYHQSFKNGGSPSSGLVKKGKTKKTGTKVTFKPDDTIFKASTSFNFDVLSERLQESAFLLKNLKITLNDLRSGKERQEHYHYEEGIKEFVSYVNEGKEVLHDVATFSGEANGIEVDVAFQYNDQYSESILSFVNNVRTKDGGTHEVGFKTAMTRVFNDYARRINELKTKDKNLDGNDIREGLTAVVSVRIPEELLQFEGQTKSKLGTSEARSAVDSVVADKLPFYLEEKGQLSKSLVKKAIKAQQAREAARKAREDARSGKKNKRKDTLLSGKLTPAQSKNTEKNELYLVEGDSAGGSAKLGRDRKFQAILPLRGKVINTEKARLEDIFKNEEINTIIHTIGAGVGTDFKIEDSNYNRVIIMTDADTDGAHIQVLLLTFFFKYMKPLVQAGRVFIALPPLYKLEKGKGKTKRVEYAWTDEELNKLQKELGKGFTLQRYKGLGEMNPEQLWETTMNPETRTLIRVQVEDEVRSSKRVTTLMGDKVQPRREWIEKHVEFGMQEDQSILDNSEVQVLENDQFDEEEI
Protocol: as §4

O=C(CCc1ccc(O)cc1)O[C@H]1[C@H](Oc2c(-c3ccc(O)c(O)c3)oc3cc(O)cc(O)c3c2=O)O[C@H](CO)[C@@H](O)[C@@H]1OC(=O)CCc1ccc(O)cc1 [Compound 15a, 2-(3′,4′-Dihydroxy)-5,7-dihydroxy-3-β-D-(2″,3″-di-p-hydroxyphenylethylcarboxy)glucosyl-4H-chromen-4-one]
MIC MRSA N315 [1]: 4 µg/mL (≈ 5.26 µM)
MIC MRSA OM481 [2]: 4 µg/mL (≈ 5.26 µM)
MIC MRSA OM58 [3]: 4 µg/mL (≈ 5.26 µM)
MIC MSS 209P [4]: 4 µg/mL (≈ 5.26 µM)
MIC VISA Mu50 [5]: 4 µg/mL (≈ 5.26 µM)
MIC VRE FN-1 [6]: 8 µg/mL (≈ 10.5 µM)
MIC VRE NCTC 12201 [7]: 8 µg/mL (≈ 10.5 µM)
Gyrase inhibitory activity IC50 [8]: 2.54 µg/mL

O=C(Cc1ccc(F)cc1)OC[C@H]1O[C@@H](Oc2c(-c3ccc(O)c(O)c3)oc3cc(O)cc(O)c3c2=O)[C@H](OC(=O)Cc2ccc(F)cc2)[C@@H](O)[C@H]1O [Compound 14e, 2-(3′,4′-Dihydroxyphenyl)-5,7-dihydroxy-3-β-D-[2″,6″-di-O-(4-fluorophenylacetyl)]galactosyl-4H-chromen-4-one]
MIC VISA Mu50 [9]: 1 µg/mL (≈ 1.36 µM)
MIC VRE FN-1 [10]: 0.5 µg/mL (≈ 0.679 µM)
MIC VRE NCTC 12201 [11]: 0.5 µg/mL (≈ 0.679 µM)
MIC MSSA 209P [12]: 1 µg/mL (≈ 1.36 µM)
MIC MRSA COL [13]: 8 µg/mL (≈ 10.9 µM)
MIC MRSA N315 [14]: 1 µg/mL (≈ 1.36 µM)
MIC MRSA OM481 [15]: 1 µg/mL (≈ 1.36 µM)
MIC MRSA OM584 [16]: 1 µg/mL (≈ 1.36 µM)
MIC S. Pneumoniae R6 [17]: 0.5 µg/mL (≈ 0.679 µM)
MIC (Gram-nagative) K-12 [18]: >128 µg/mL
MIC (Gram-nagative) PAO1 [19]: >128 µg/mL
IC50 [20]: 1050 nM
IC50 [21]: 7210 nM
IC50 [22]: 460 nM
